{"source": "paper PMC7356390", "about": "“Dehydrozingerone, a Curcumin Analog, as a Potential Anti-Prostate Cancer Inhibitor In Vitro and In Vivo” (Molecules, 2020)", "key": {"PLS10 cells xenograft": {"test_system": "PLS10 cells xenograft", "assay": "In vivo antitumor activity, PLS10 cells xenograft model", "design": "species or system male BALB/c-nu/nu mice", "details": "for Body Weights at the end of the experiment / Organ Weights, Kidneys / Organ Weights, Livers: mean ± S.E.; for Ki67-labeling index in tumor sections: control 63; for tumor volume: control 96 cm^3; for CD31-positive areas in tumors (angiogenesis): vs control, p < 0.05; for survival percentage of nude mice: male, BALB/c-nu/nu, mouse, in vivo, 5 weeks", "method": "Figure 4 DZG inhibited cell proliferation and angiogenesis in vivo using PLS10 cells xenograft model. Mice were subcutaneously injected with PLS10 cells and treated two times per week with Cur or DZG (30 mg/kg body weight) for a period of 5 weeks. Tumor volume was measured twice a week and at the end of the study (a). The tumor masses were collected, sectioned and analyzed by immunohistochemistry to detect the Ki67-labeling index (b), % TUNEL (Terminal deoxynucleotidyl transferase dUTP nick end labeling)-positive cells (c) and % of the vessel area (d). Data presented in bar diagrams represent the mean ± S.E of eight mice in the control and nine mice in the treatment groups. ** p < 0.01 vs. control (one-way ANOVA, Dunnett’s multiple comparisons test, tested groups vs. control group).\nThe in vivo antitumor activity of DZG or Cur was examined using five-week-old male BALB/c-nu/nu mice. Mice were randomly divided into 3 groups, with up to 8 or 9 mice per group. The PLS10 cells (5.0 × 10^5) were subcutaneously injected into each mouse. The treatments were initiated 2 days after PLS10 cells injections, at which point, mice received 50% DMSO in normal saline solution (NSS) (vehicle control) at 30 mg/kg body weight of Cur or DZG via i.p. injection two times a week for five weeks. The body weight of each mouse was measured twice a week during the experiment. At week 5 of the experiment, mice were euthanized, and primary tumors and organs, such as lungs, liver, kidneys and lymph nodes, were removed and fixed in 10% buffered formalin. The tumor volume of each mouse was measured and calculated according to the following formulation: 0.52 × (axis1 × axis2 × axis3). A section of the primary tumor, lung, liver, and kidney specimens were collected and fixed in 10% buffered formalin. Tissue sections of the primary tumors and organs were stained with H&E.\nThe paraffin-embedded samples were sectioned and stained with rabbit monoclonal anti-Ki67 (SP6; Acris Antibodies GmbH, Herford, Germany) and rabbit polyclonal anti-CD31 antibodies (Abcam, Cambridge, UK) and sequentially stained with an anti-rabbit secondary antibody and avidin-biotin complex. The binding complexes were then visualized with diamino-benzidine. Subsequently, the sections were then counterstained lightly with hematoxylin for microscopic examination. The number of Ki67-staining cells for a minimum of 1000 cells was counted to determine the labeling index. For quantitative analysis of the vessel area, CD31-positive areas per the total area section were determined under microscopy (BZ-9000).\nThe paraffin-embedded samples were sectioned, and the degree of apoptosis in the tumor tissue was determined using a TUNEL assay (In situ Apoptosis Detection Kit; Takara Bio Inc., Ohtsu, Japan). The TUNEL assay was performed according to the manufacturer’s instructions. The number of TUNEL-labeled cells in a minimum of 1000 cells was counted in order to establish the labeling index."}, "PLS10 cells": {"test_system": "PLS10 cells", "assay": "WST-1 cell viability assay", "assay_type": "cell-based", "details": "Rattus norvegicus; 48 h, WST-1 assay, mean ± S.D.; read-out: IC50, cell proliferation of PLS10 cells", "method": "Figure 2 Cytotoxicity of Cur (a) and DZG (b) on PLS10 cells. Cells were treated with Cur (0–50 μM) or DZG (0–200 µM) and incubated for 48 h. Cell viability was measured by WST-1 assay. Data are represented as mean ± S.D. of three independent experiments. * p < 0.05, ** p < 0.01 and *** p < 0.001 vs. control (one-way ANOVA, Dunnett’s multiple comparisons test, tested groups vs. control group). PLS10 cells (2.0 × 10^3 cells per well) were plated in a 96-well plate for 24 h. Cur and DZG were dissolved in DMSO and diluted to the final concentration in the culture medium. After that, the culture medium containing Cur (0–50 µM) or DZG (0–200 µM) in 0.5% DMSO (vehicle control) were added into the cells. The cells were incubated in 5% CO2 at 37°C for a further 48 h, and cell viability was determined using the WST-1 colorimetric assay (Roche Diagnostics, Mannheim, Germany). In each experiment, determinations were carried out in triplicate."}, "[1]": {"details": "30 mg/kg i.p. two times a week for five weeks"}}, "data": [{"compound": "COc1cc(/C=C/C(=O)CC(=O)/C=C/c2ccc(O)c(OC)c2)ccc1O", "note": "[Cur, Curcumin]", "values": [{"measurement": "Body Weights at the end of the experiment", "setting": "PLS10 cells xenograft; [1]", "value": "26.71 ± 1.26"}, {"measurement": "Organ Weights, Kidneys", "setting": "PLS10 cells xenograft; [1]", "value": "0.40 ± 0.03"}, {"measurement": "Organ Weights, Livers", "setting": "PLS10 cells xenograft; [1]", "value": "1.67 ± 0.10"}, {"measurement": "Ki67-labeling index in tumor sections", "setting": "PLS10 cells xenograft; [1]", "value": 62, "unit": "%"}, {"measurement": "tumor volume", "setting": "PLS10 cells xenograft; [1]", "value": 38, "unit": "cm^3"}, {"measurement": "CD31-positive areas in tumors (angiogenesis)", "setting": "PLS10 cells xenograft; [1]", "value": "significantly reduced"}, {"measurement": "survival percentage of nude mice", "setting": "PLS10 cells xenograft", "value": 100, "unit": "%"}, {"measurement": "IC50", "setting": "PLS10 cells", "value": "20.3 ± 0.58", "unit": "µM"}]}, {"compound": "COc1cc(/C=C/C(C)=O)ccc1O", "note": "[DZG, (E)-4-(4-hydroxy-3-methoxyphenyl)-but-3-en-2-one]", "values": [{"measurement": "Body Weights at the end of the experiment", "setting": "PLS10 cells xenograft; [1]", "value": "27.12 ± 1.00"}, {"measurement": "Organ Weights, Kidneys", "setting": "PLS10 cells xenograft; [1]", "value": "0.39 ± 0.03"}, {"measurement": "Organ Weights, Livers", "setting": "PLS10 cells xenograft; [1]", "value": "1.60 ± 0.09"}, {"measurement": "apoptotic cells (TUNEL-positive) in tumor sections", "setting": "PLS10 cells xenograft; 30 mg/kg i.p. two times a week for five weeks, control 7%", "value": 10, "unit": "%"}, {"measurement": "Ki67-labeling index in tumor sections", "setting": "PLS10 cells xenograft; [1]", "value": 59, "unit": "%"}, {"measurement": "tumor volume", "setting": "PLS10 cells xenograft; [1]", "value": 24, "unit": "cm^3"}, {"measurement": "CD31-positive areas in tumors (angiogenesis)", "setting": "PLS10 cells xenograft; [1]", "value": "significantly reduced"}, {"measurement": "survival percentage of nude mice", "setting": "PLS10 cells xenograft", "value": 100, "unit": "%"}, {"measurement": "IC50", "setting": "PLS10 cells", "value": "153 ± 11.8", "unit": "µM"}]}]}
